Results published in patent US9750805B2, “Calcium flux agonists and methods therefor” (Nant Holdings IP, LLC, priority 2012, dated 2017).

Key:
[1] = tested on: TLR2 ligand response of THP-1 promonocytic leukemia cell line; experiment: IL-8 release with TLR2 ligand plus suboptimal calcium flux agonist (FIG. 2); format: cell-based, human; conditions: THP-1 cells, suboptimal doses of ionophore; beyond cumulative individual responses (synergy)
Protocol: (§1) For example, human promonocytic THP-1 cells were incubated in the presence or absence of a suboptimal dose of the TLR2 ligand Pam2CSK4 and compared to similarly treated cells which also received suboptimal doses of ionophore (here: A23187 and ionomycin). […] In another example, NF-κB THP-1 cells (a THP-1-derived transfectant line harboring an NF-κB-driven luciferase expression cassette) were cultivated in the presence or absence of a suboptimal dose of the TLR2 ligand Pam2CSK4 and compared to similarly treated cells that also received suboptimal doses of various SERCA inhibitors.
Here, the ionophores A23187 and ionomycin, as well as the SERCA inhibitor thapsigargin synergize with the TLR2 ligand (Pam2CYS) in the activation of cytokine release from the human THP-1 promonocytic leukemia cell line. It should be especially noted that while the TLR2 ligand alone provided for about 5 ng/ml IL-8 response, addition of a suboptimal dose of the calcium flux agonists (e.g. 20 nM for thapsigargin, 316 nM for A23187, and 1 μM for ionomycin) produced more than 10-fold quantities of IL-8 production in the cells.

[2] = tested on: κB-LUC THP-1 (NF-κB Luciferase Reporter); experiment: NF-κB activation, luciferase reporter, dose response without added ligand; format: cell-based, human; conditions: κB-LUC THP-1, 24 hours, increasing concentrations, no added ligand; FIGS. 1A-1C
Excerpt: The inventors performed several studies to identify the effect of calcium flux agonists on various components of an immune response, and particularly on the effect of calcium flux agonists on IL-8 production and activation of NF-κB signaling. […] The dose response is observed over relatively large windows for ionophores (e.g., A23187 and ionomycin) and over at least two orders of magnitude for SERCA inhibitors (e.g., thapsigargin).
More specifically, the dose response of ionophores on NF-κB and IL-8 is shown in FIGS. 1A-1B using a monocyte-derived cell line to treatment and A23187 and ionomycin in the absence of externally added TLR or NOD ligands. […] FIG. 1C depicts the dose response to thapsigargin on NF-κB and IL-8.
NF-κB activation: A titration of thapsigargin (A.G. Scientific), ionomycin, and the calcium ionophore A23187 was added to a 96-well plate (Thermo Matrix) seeded with 150,000 THP-1 κB-LUC THP-1's (THP-1 cells containing the stable integration of a NF-κB Luciferase Reporter) grown in RPMI 1640 (Cellgro, Herndon VA) supplemented with 10% FBS (Thermo HyClone) and 1% penicillin-streptomycin-fungizone (Thermo HyClone). 24 hours after addition, 25 uL of Bright-Glo Luciferase Assay System (Promega, Madison Wis.) was added to each well and analyzed for luciferase activity using Perkin Elmer TopCount NXT (Perkin Elmer, Waltham Mass.).

S. aureus = experiment: Mouse model of S. aureus skin wound infection, pre-infection topical treatment; format: in vivo, C57BL/6 mice; conditions: topical 2 mM formulation one day before infection; for bacterial burden at the infection site: day 7, vs vehicle controls; for wound size: days 3, 5 and 7 of infection, vs control treated animals, p<0.01
Protocol: To determine if calcium flux agonists such as the ionophores A23187 and ionomycin or the SERCA pump inhibitor thapsigargin can be used as a pre-treatment of bacterial infection, the inventors treated the shaved dorsal skin of 6-8 week old male C57B1/6 mice with vehicle alone, or formulations containing 2 mM A23187, ionomycin, or thapsigargin. One day later, the inventors superficially infected the dorsal skin of groups of 5 mice with 2×10^6 CFU of S. aureus and evaluated bacterial burden and wound size over the next week.
Topical delivery: A23187 and ionomycin and thapsigargin were reconstituted in dehydrated ethanol (Spectrum Chemicals, Gardena Calif.) to appropriate concentrations for subsequent formulations. In the pre-infection in vivo study, topical formulations consisted of 75% dehydrated ethanol (Spectrum Chemicals), 22% cyclohexane (Sigma-Aldrich), and 3% dimethyl sulfoxide (Sigma-Aldrich). Each topical formulation was delivered by submersing a circular piece of Whatman paper (Whatman, a division of GE Healthcare) with a 1.0 centimeter diameter and applying said circle to the skin of each recipient for 5 minutes.
Preparation of S. aureus for skin inoculation: Briefly, mid-logarithmic phase S. aureus bacteria was washed twice and resuspended in sterile saline (0.9%) at the noted concentrations. Mice: Male mice, 6-8 weeks old, on a C57BL/6 genetic background were used in all experiments (Jackson Laboratories, Bar Harbor, Me.).
Mouse model of S. aureus skin wound infection: To prepare animals for wound infection, the skin of the posterior upper back and neck of mice was shaved using #40 clippers. Next, three parallel 8 mm long full-thickness scalpel cuts (no. 11 blade) were made into the dermis. Resulting wounds were inoculated with 10 μl of S. aureus (2×10^8 CFUs per mL) with a micropipettor. Total lesion size (cm2) measurements were quantified by determining total pixel count from photographed animals using a millimeter ruler as a reference.
Quantification of in vivo S. aureus bacterial burden: To determine in vivo bacterial burden, infected mice were sacrificed on day 7 following infection and lesions were harvested surgically. Harvested tissues were homogenized and bacterial count was determined following plating on appropriate solid growth media.

NF-κB THP-1 cells = experiment: NF-κB luciferase reporter synergy with TLR2 ligand and effect of Ca2+ modulating compounds (FIG. 4); format: cell-based, human; conditions: NF-κB THP-1 cells, suboptimal doses of SERCA inhibitors; beyond cumulative individual responses (synergy)
Protocol: as §1
The inventors further investigated if the nature of calcium flux was of significance as increased intracellular calcium may have different origins. To that effect, the inventors used various calcium signaling modulators to investigate the nature of the calcium flux and contribution. As can be readily taken from the data shown, extracellular calcium flux into the cell was critical for synergistic amplification of calcium signaling. More specifically, FIG. 4 illustrates the effects of different Ca^2+ modulating compounds on synergy with respect to NF-κB activation.

[3] = tested on: methicillin-sensitive S. aureus (MSSA); experiment: Direct antibiotic activity in liquid culture assay, MSSA; format: cell-based
Protocol: Consistent with these and previous results regarding their inherent antibiotic activity against S. aureus, the inventors confirmed the direct antibiotic activity of both ionophores for direct antibiotic activity on methicillin-sensitive S. aureus (MSSA).
To determine the antibiotic sensitivity of S. aureus, cultures were grown overnight in tryptic soy broth (Cellgro). The resulting cultures were used to inoculate new cultures to ensure log phase growth prior to the start of the experiment. Once the bacteria had reached log phase the bacteria was diluted to the appropriate OD600˜0.05 and transferred to a 24-well plate. Compounds of interest were added and plates were incubated in a shaking incubator at 37° C. Aliquots were removed at various time points and their respective OD600 was measured using a BioTek Synergy2 microplate reader (BioTek, Winooski, Vt.). For wells whose turbidity was affected by the addition of the compounds of interest, aliquots were removed and plated on tryptic soy agar (Cellgro) and incubated overnight in a 37° C. incubated and counted the following day. Thus, it should be appreciated that the calcium flux agonists are effective in antimicrobial treatments via an indirect effect, most likely due to the enhanced production of IL-8 and increased NF-κB-driven transcription.

| SMILES | amount of IL-8 produced with suboptimal TLR2 ligand Pam2CSK4 [1] | activation of NF-κB signaling [2] | bacterial burden at the infection site (S. aureus) | wound size (S. aureus) | amount of luciferase produced with suboptimal TLR2 ligand Pam2CSK4 (NF-κB THP-1 cells) | direct antibiotic activity against MSSA [3] |
| --- | --- | --- | --- | --- | --- | --- |
| C[C@H](CCC(=O)O)C[C@H](C)C[C@H](C)C(=O)/C=C(\O)[C@H](C)C[C@H](C)C/C=C/[C@@H](C)[C@@H](O)[C@@H](C)[C@@H](O)C[C@@H]1CC[C@@](C)([C@H]2CC[C@@](C)([C@@H](C)O)O2)O1 [ionomycin] | significantly increased | significant increases | significantly fewer bacteria | significantly smaller wound sizes | – | – |
| C/C=C(/C)C(=O)O[C@H]1C(C)=C2[C@H]([C@@H]1OC(=O)CCCCCCC)[C@@](C)(OC(C)=O)C[C@H](OC(=O)CCC)[C@@]1(O)[C@H]2OC(=O)[C@@]1(C)O [thapsigargin] | – | significant increases | significantly fewer bacteria | significantly smaller wound sizes | significantly increased | – |
| CNc1ccc2oc(C[C@H]3O[C@@]4(CC[C@H]3C)O[C@H]([C@H](C)C(=O)c3ccc[nH]3)[C@H](C)C[C@H]4C)nc2c1C(=O)O [A23187, calcimycin] | significantly increased | significant increases | significantly fewer bacteria | significantly smaller wound sizes | – | the more active compound |
